From PubChem BioAssay (NCI)
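Where inhibition never reached the appropriate level, the endpoint shown equals the highest concentration tested. Otherwise, values were interpolated linearly from a five-concentration, 48-hour dose response in 96-well plates. At the GI50, growth is halved. At the TGI there is no net growth.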

Key:
Test in all cases: NCI tumour cell line growth inhibition, 48 h
[1] = tested on: NCI-H460 lung
[2] = tested on: OVCAR-5 ovarian
[3] = tested on: EKVX NSCLC
[4] = tested on: M14 melanoma
[5] = tested on: SR leukemia
[6] = tested on: 786-0 renal
[7] = tested on: HCT-15 colon
[8] = tested on: RPMI-8226 leukemia
[9] = tested on: U251 CNS
[10] = tested on: T-47D breast
[11] = tested on: SNB-19 CNS
[12] = tested on: RXF 393 renal
[13] = tested on: HT29 colon
[14] = tested on: MOLT-4 leukemia
[15] = tested on: COLO 205 colon
[16] = tested on: DU-145 prostate
[17] = tested on: MDA-MB-231 breast
[18] = tested on: UO-31 renal
[19] = tested on: NCI-H522 lung
[20] = tested on: SW-620 colon
[21] = tested on: OVCAR-4 ovarian
[22] = tested on: MDA-MB-435
[23] = tested on: SK-OV-3 ovarian
[24] = tested on: ACHN renal
[25] = tested on: SF-268 CNS
[26] = tested on: SN12C renal
[27] = tested on: BT-549 breast
[28] = tested on: UACC-62 melanoma
[29] = tested on: LOX IMVI melanoma
[30] = tested on: A549 NSCLC
[31] = tested on: PC-3 prostate
[32] = tested on: A498 renal
[33] = tested on: SK-MEL-5 melanoma
[34] = tested on: MCF7 breast
[35] = tested on: SK-MEL-2 melanoma
[36] = tested on: NCI-H226 lung
[37] = tested on: SF-539 CNS
[38] = tested on: IGROV1 ovarian
[39] = tested on: HS 578T breast
[40] = tested on: HOP-62 NSCLC
[41] = tested on: MALME-3M melanoma
[42] = tested on: UACC-257 melanoma
[43] = tested on: CAKI-1 renal
[44] = tested on: SK-MEL-28 melanoma
[45] = tested on: NCI/ADR-RES ovarian
[46] = tested on: OVCAR-8 ovarian
[47] = tested on: CCRF-CEM leukemia
[48] = tested on: SNB-75 CNS
[49] = tested on: HCC-2998 colon
[50] = tested on: HCT-116 colon
[51] = tested on: SF-295 CNS
[52] = tested on: KM12 colon
[53] = tested on: K-562 leukemia
[54] = tested on: TK-10 renal
[55] = tested on: NCI-H23 lung

## O=c1c2cc(-c3ccc(F)cc3F)ccc2n(O)c(=O)n1-c1cccc(C(F)(F)F)c1
[1]
  GI50: 0.668 µM
  TGI: 5.23 µM
[2]
  GI50: 3.38 µM
  TGI: 92.9 µM
[3]
  GI50: 2.35 µM
  TGI: 8.47 µM
[4]
  GI50: 0.773 µM
  TGI: 3.47 µM
[5]
  GI50: 0.259 µM
  TGI: 1.88 µM
[6]
  GI50: 2.15 µM
  TGI: 5.66 µM
[7]
  GI50: 0.435 µM
  TGI: 2.28 µM
[8]
  GI50: 1.02 µM
  TGI: 5.85 µM
[9]
  GI50: 1.86 µM
  TGI: 15.7 µM
[10]
  GI50: 1.49 µM
  TGI: 5.76 µM
[11]
  GI50: 0.682 µM
  TGI: > 100 µM
[12]
  GI50: 1.05 µM
  TGI: 3.14 µM
[13]
  GI50: 4.3 µM
  TGI: 26.8 µM
[14]
  GI50: 0.419 µM
  TGI: 2.13 µM
[15]
  GI50: 1.94 µM
  TGI: 4.05 µM
[16]
  GI50: 2.48 µM
  TGI: 49.1 µM
[17]
  GI50: 1.59 µM
  TGI: 6.36 µM
[18]
  GI50: 2.23 µM
  TGI: 9.3 µM
[19]
  GI50: 0.369 µM
  TGI: 2.55 µM
[20]
  GI50: 2.05 µM
  TGI: 10.5 µM
[21]
  GI50: 2.19 µM
  TGI: > 100 µM
[22]
  GI50: 1.56 µM
  TGI: 7.67 µM
[23]
  GI50: 1.13 µM
  TGI: 3.88 µM
[24]
  GI50: 2.08 µM
  TGI: 10.4 µM
[25]
  GI50: 1.75 µM
  TGI: 15.5 µM
[26]
  GI50: 0.683 µM
  TGI: 5.41 µM
[27]
  GI50: 0.437 µM
  TGI: 1.58 µM
[28]
  GI50: 0.323 µM
  TGI: 1.31 µM
[29]
  GI50: 1.22 µM
  TGI: 2.94 µM
[30]
  GI50: 2.95 µM
  TGI: 20.1 µM
[31]
  GI50: 1.8 µM
  TGI: 6.95 µM
[32]
  GI50: 0.347 µM
  TGI: 1.26 µM
[33]
  GI50: 0.263 µM
  TGI: 0.708 µM
[34]
  GI50: 1.61 µM
  TGI: 7.12 µM
[35]
  GI50: 0.534 µM
  TGI: 2.29 µM
[36]
  GI50: 1.01 µM
  TGI: 3.64 µM
[37]
  GI50: 1.47 µM
  TGI: 7.94 µM
[38]
  GI50: 2.03 µM
  TGI: 25.4 µM
[39]
  GI50: 0.837 µM
  TGI: 4.42 µM
[40]
  GI50: 1.8 µM
  TGI: 4.34 µM
[41]
  GI50: 1.51 µM
  TGI: 5.39 µM
[42]
  GI50: 1.01 µM
  TGI: 4.48 µM
[43]
  GI50: 1.61 µM
  TGI: 6.02 µM
[44]
  GI50: 1.26 µM
  TGI: 10 µM
[45]
  GI50: 1.17 µM
  TGI: 10.5 µM
[46]
  GI50: 1.08 µM
  TGI: 8.89 µM
[47]
  GI50: 3.12 µM
  TGI: > 100 µM
[48]
  GI50: 1.51 µM
  TGI: 6.45 µM
[49]
  GI50: 2.51 µM
  TGI: 9.9 µM
[50]
  GI50: 0.42 µM
  TGI: 1.61 µM
[51]
  GI50: 1.65 µM
  TGI: 3.45 µM
[52]
  GI50: 2.16 µM
  TGI: 7.07 µM
[53]
  GI50: 0.424 µM
  TGI: 35 µM
[54]
  GI50: 4.19 µM
  TGI: 9.17 µM
[55]
  GI50: 0.722 µM
  TGI: 5.3 µM
